Assay results published in patent publication US5561126A, “4-oxa-1-azabicyclo [3,2,0] heptan-7-one derivatives as antitumor agents” (Taiho Pharmaceutical Co., Ltd., priority 1992, dated 1996).
Values after ≈ are worked out from the molar mass of the structure shown.

These compounds were tested on KB cells (assay: In Vitro KB Cell Cytotoxicity Assay (crystal violet)). Details: Homo sapiens, 72 h, read-out: Cytotoxicity TD50 KB.
Format: cell-based
Procedure: KB cells were cultivated in Eagles minimum essential medium supplemented with 10% calf serum and incubated at 37° C. in a humidified 5% CO2 atmosphere to prepare a cell stock. Cells were counted using a neubauer hemocytometer and seeded in 96 well plates at 100 μl of 3×10^4 cells/ml and cultured for one day. […] Control wells were identical except that test compound was absent. These were cultured for three days. […] Then stained with 100 μl of 0.05% crystal violet for 15 minutes, washed with water and dried. The wells were eluted with 100 μl of 0.05M NaH2 PO4 /ethanol (1:1 v/v) and read at OD540 on a multiscan spectrophotometer. TD50 values were calculated using the following formula.

In order of rising CC50:
1. CC(C)CC(=O)OC[C@H]1CN2C(=O)C[C@@H]2O1 (relative stereo) [compound 10, (3RS, 5SR)-3-Methylbutyryloxymethyl-4-oxa-1-azabicyclo [3,2,0]heptan-7-one]  0.25 µg/mL (≈ 1.1 µM)
2. C#CCCC(=O)OC[C@H]1CN2C(=O)C[C@@H]2O1 (racemic) [compound 17, (3RS, 5SR)-3-(4-Pentynoyloxymethyl)-4-oxa-1-azabicyclo [3,2,0]heptan-7-one]  0.27 µg/mL (≈ 1.21 µM)
3. O=C(CC(O)C(=O)OC[C@H]1CN2C(=O)C[C@@H]2O1)OC[C@H]1CN2C(=O)C[C@@H]2O1 (mixture of isomers) [compound 28, Bis [(3RS, 5SR)-(4-oxa-1-azabicyclo[3,2,0]heptan-7-one-3-yl)-methyl]-2-hydroxysuccinate]  0.3 µg/mL (≈ 0.781 µM)
4. O=C(OC[C@H]1CN2C(=O)C[C@@H]2O1)c1cc(F)c(F)cc1F (racemic) [compound 32, (3RS, 5SR)-3-(2,4,5-Trifluorobenzoyloxymethyl)-4-oxa-1-azabicyclo[3,2,0]heptan-7-one]  0.3 µg/mL (≈ 0.996 µM)
5. O=C(OC[C@H]1CN2C(=O)C[C@@H]2O1)C(O)C(O)C(=O)OC[C@H]1CN2C(=O)C[C@@H]2O1 (mixture of isomers) [compound 29, Bis [(3RS, 5SR)-(4-oxa-1-azabicyclo[3,2,0]heptan-7-one-3-yl)-methyl]-2,3-dihydroxysuccinate]  0.3 µg/mL (≈ 0.749 µM)
6. N#Cc1ccc(C(=O)OC[C@H]2CN3C(=O)C[C@@H]3O2)cc1 (relative stereo) [compound 33, (3RS, 5SR)-3-(4-Cyanobenzoyloxyymethyl)-4-oxa-1-azabicyclo [3,2,0]heptan-7-one]  0.3 µg/mL (≈ 1.1 µM)
7. CC(C)CCC(=O)OC[C@H]1CN2C(=O)C[C@@H]2O1 (relative stereo) [compound 11]  0.4 µg/mL (≈ 1.66 µM)
8. CCCCC(C)C(=O)OC[C@H]1CN2C(=O)C[C@@H]2O1 (relative stereo) [compound 12]  0.4 µg/mL (≈ 1.57 µM)
9. COc1ccc(COC[C@H]2CN3C(=O)C[C@@H]3O2)cc1OC [39A]  0.56 µg/mL (≈ 1.91 µM)
10. COc1ccc(COC[C@H]2CN3C(=O)C[C@H]3O2)cc1OC [39B, (3R,5R)-3-(3,4-Dimethoxybenzyloxymethyl)-4-oxa-1-azabicyclo[3,2,0] heptan-7-one]  0.57 µg/mL (≈ 1.94 µM)
11. O=C(O)C1CCCCC1C(=O)OC[C@H]1CN2C(=O)C[C@@H]2O1 (relative stereo) [compound 24, Sodium (3RS, 5SR)-2-(4-oxa-1-azabicyclo [3,2,0]heptan-7-one-3-methyloxycarbonyl)cyclohexyl-2-carboxylate]  0.7 µg/mL
12. COc1cc(C(=O)OC[C@H]2CN3C(=O)C[C@@H]3O2)cc(OC)c1O (racemic) [compound 35, (3RS, 5SR)-3-(4-Hydroxy-3,5-dimethoxybenzoyloxymethyl)-4-oxa-1-azabicyclo [3,2,0]heptan-7-one]  0.8 µg/mL (≈ 2.47 µM)
13. Cc1ccc(S(=O)(=O)C[C@H]2CN3C(=O)C[C@@H]3O2)cc1 (racemic) [compound 51, (3RS, 5SR)-3-(4-Methylbenzenesulfonyl)methyl-4-oxa-1-azabicyclo[3,2,0]heptan-7-one]  1 µg/mL (≈ 3.55 µM)
14. Cc1cc(C)c(C(=O)OC[C@H]2CN3C(=O)C[C@@H]3O2)c(C)c1 (relative stereo) [compound 19]  2 µg/mL (≈ 6.91 µM)
15. O=C(O)/C=C/C(=O)OC[C@H]1CN2C(=O)C[C@@H]2O1 (relative stereo) [compound 27, Sodium [(3RS, 5SR)-(4-oxa-1-azabicyclo[3,2,0]heptan-7-one-3-yl)methyl]fumarate]  2.4 µg/mL
16. O=C(OC[C@H]1CN2C(=O)C[C@@H]2O1)c1ccc(O)c(O)c1 (relative stereo) [compound 22]  2.5 µg/mL (≈ 8.95 µM)
17. O=C1C[C@@H]2O[C@@H](CSc3ccccc3)CN12 (racemic) [compound 44, (3RS, 5SR)-3-Phenylthiomethyl-4-oxa-1-azabicyclo[3,2,0]heptan-7-one]  3 µg/mL (≈ 12.7 µM)
18. O=C(OC[C@H]1CN2C(=O)C[C@@H]2O1)c1ccccc1 (racemic) [compound 18, (3RS, 5SR)-3-Benzoyloxymethyl-4-oxa-1-azabicyclo[3,2,0]heptan-7-one]  5 µg/mL (≈ 20.2 µM)
